In assay [1] the test system is Panc1 cells. The experiment in a line: Cell viability assay (CellTiter Glo), Panc1. The assay is classed as cell-based. The following applies: Panc1 versus A549. Here is the method: (§1) Cell viability assay was performed to assess the potency of the ferroptosis inducer compounds in various cancer cell lines with K-Ras mutations. […] A series of 9 different concentrations of compound stocks (500×) were created by 3-fold serial dilution in DMSO. […] After 96 hours of incubation, 50 μL of CellTiter Glo reagent (Promega) was added to each well and luminescence was measured after 10 minutes using EnVision (PerkinElmer). […] IC50, relative IC50, or % of top inhibition was calculated. Next, RSL3, ML210, Erastin, and Auranofin were tested on additional K-RAS mutant pancreatic cell lines (Panc1, Panc6.03, Panc2.13, PSN-1, and Capan-1) in Table 1.
A general note: ATP-based viability assays read luminescence as a measure of living cells.

For assay [2], the system named is PSN-1 cells. The experiment in a line: Cell viability assay (CellTiter Glo), PSN-1. It is filed as cell-based. The following applies: PSN-1 versus A549. Here is the method: as §1
Assay [3] relates to B cell lymphoma cell lines Mino and Namalwa. The experiment in a line: Cell viability assay, B cell lymphoma cell lines compared with A549. The assay is classed as cell-based. The following applies: Mino and Namalwa versus A549. As to the method: Cell viability assay was performed to assess the potency of the ferroptosis inducer compounds in various cancer cell lines with K-Ras mutations. […] A series of 9 different concentrations of compound stocks (500×) were created by 3-fold serial dilution in DMSO. […] After 96 hours of incubation, 50 μL of CellTiter Glo reagent (Promega) was added to each well and luminescence was measured after 10 minutes using EnVision (PerkinElmer). […] […] IC50, relative IC50, or % of top inhibition was calculated.

In assay [4] the test system is A549 cells. The assay is described as follows: Combination proliferation assay with PKC activator, A549. The assay is classed as cell-based. The following applies: inducer at concentration with minimal or no effect alone. As to the method:
(§2) Cell viability assay was performed to assess the potency of the ferroptosis inducer compounds in various cancer cell lines with K-Ras mutations. Cells at a density of 1,000-10,000 cells/well were seeded in 96-well plates and incubated at 37° C. overnight. A series of 9 different concentrations of compound stocks (500×) were created by 3-fold serial dilution in DMSO. These compounds were further diluted in culture media and then added to cells so that the final DMSO concentration was equal to 0.25% or less. After 96 hours of incubation, 50 μL of CellTiter Glo reagent (Promega) was added to each well and luminescence was measured after 10 minutes using EnVision (PerkinElmer). K101A (a PKC activator) was used as the reference compound titrated from top concentration of 30 μM. All compounds were tested initially from 30 μM as the top concentration in duplicates (range of 4.6 nM-30 μM). […] Data was analyzed using XL-fit software (ID Business Solutions Ltd.). IC50, relative IC50, or % of top inhibition was calculated.
(§3) Therefore, whether PKC activators synergize or antagonize with ferroptosis inducers can be tested empirically.

Assay [5] deals with Panc1 cells. The assay is described as follows: Combination proliferation assay with PKC activator, Panc1. It is filed as cell-based. The following applies: inducer up to 1 μM. As to the method: as §2, §3
The test system of assay [6] is Panc2.13 cells. The experiment in a line: Combination proliferation assay with PKC activator, Panc2.13. It is filed as cell-based. As to the method: as §2, §3
In assay [7] the test system is PSN-1 cells. The assay is described as follows: Combination proliferation assay with PKC activator, PSN-1. It is filed as cell-based. As to the method:
as §2, §3

Assay [8] concerns Capan-1 cells. The assay is described as follows: Combination proliferation assay with PKC activator, Capan-1. It is filed as cell-based. As to the method: as §2, §3
Assay [9] has as its system KP-4 cells. The experiment in a line: Combination proliferation assay with PKC activator, KP-4. The assay is classed as cell-based. As to the method:
as §2, §3

In assay [10] the test system is KP-4 cells. The assay is described as follows: Effect of ferroptosis or apoptosis inhibitor on RSL3- or Erastin-induced cell death, KP-4. The following applies: Homo sapiens, KP-4, read-out: reduction of cell viability compared to DMSO. Here is the method:
as §2
Ferroptosis inhibitors include: Ferrostatin-1 and Liproxstatin-1, inhibitors of ROS accumulation; Deferoxamine, an iron chelator; and PD146176, a 15-lipoxygenase inhibitor (see, e.g., Hofman et al., 2016, J Med Chem. March 10; 59(5):2041-53; Yang et al., 2016 Cell 26(3):165-176). The apoptosis inhibitor chosen was ZVAD (see, e.g. Wu et al., 2011, Cell Death and Differentiation 18:26-37). Ferroptosis inhibitors and ZVAD were first titrated as a single agent as shown in Example 1.

For assay [11], the system named is A549 cells. The assay is described as follows: Effect of ferroptosis or apoptosis inhibitor on RSL3- or Erastin-induced cell death, A549. The following applies: Homo sapiens, A549, read-out: reduction of cell viability compared to DMSO. Here is the method:
as §2
Ferroptosis inhibitors include: Ferrostatin-1 and Liproxstatin-1, inhibitors of ROS accumulation; Deferoxamine, an iron chelator; and PD146176, a 15-lipoxygenase inhibitor (see, e.g., Hofman et al., 2016, J Med Chem. March 10; 59(5):2041-53; Yang et al., 2016 Cell 26(3):165-176). […]

Some results are limits rather than exact numbers.

We go through one compound from US20200138829A1, “METHODS OF CANCER TREATMENT” (Ferro Therapeutics, Inc., priority 2017, published 2020).

In the case of `CCOc1ccccc1-n1c(C(C)N2CCN(C(=O)COc3ccc(Cl)cc3)CC2)nc2ccccc2c1=O` (stereo not drawn) [Erastin], the “selectivity for induced cell death in comparison to A549” value in [1] was roughly 2 fold. Besides, the “selectivity/sensitivity for induced cell death in comparison to A549” value in assay [2] is roughly 2 fold. In addition, the “sensitivity to induced cell death in comparison to A549” value in assay [3] was “not more sensitive”. For the same compound, the “synergy with K101A or K102 to block proliferation” value in assay [4] is on record as “synergized strongly”; in assay [5], “No synergistic effects”; in assay [6], “synergized”; in assay [8], “did not synergize”. For the same compound, the “effect on the potency of K101A or K102” value in assay [6] is “only increased the potency”. Also, the “synergy with K101A (PKC activators) to block proliferation” value in assay [7] is on record as “synergized”. Besides, the “synergy when combined with K101A or K102” value in [9] was “only additive effects”. For the same compound, in assay [10], the cytotoxicity at 1 µM is greater than 90%. Further, the cytotoxicity at 10 µM in assay [11] fell in the range of 50 to 60%.
